# Key:
# P. aeruginosa P9 = assay: Minimal inhibitory concentration (MIC) by the agar dilution method, P. aeruginosa P9; type: cell-based; conditions: Pseudomonas aeruginosa, Mueller-Hinton agar, about 10^4 CFU/spot, 37° C. overnight
# Procedure: (§1) Test Example 1 Minimal Inhibitory Concentrations (MIC)
# (§2) The minimal inhibitory concentrations (MIC) of the test compounds were determined by the agar dilution method. More specifically, 0.25 ml each of aqueous solutions of the test compounds diluted by the serial dilution method was poured into petridishes. To each of these petridishes was poured 9.75 ml of Mueller-Hinton agar, followed by mixing. On each of these agar plates was a suspension of the test microorganism (about 10^4 CFU/spot). The lowest concentration of the test compounds inhibiting the growth of test microorganisms, after the incubation at 37° C. overnight, was taken as MIC.
# P. aeruginosa NC-5 = assay: Minimal inhibitory concentration (MIC) by the agar dilution method, P. aeruginosa NC-5; type: cell-based; conditions: Pseudomonas aeruginosa, NC5, Mueller-Hinton agar, about 10^4 CFU/spot, 37° C. overnight
# Procedure: as §1, §2
MIC (P. aeruginosa P9) [µg/mL],MIC (P. aeruginosa NC-5) [µg/mL],SMILES
0.025,0.006,"CC(C)(O/N=C(\C(=O)N[C@@H]1C(=O)N2C(C(=O)O)=C(CSc3nnnn3Cc3cc(=O)c(O)cn3O)CS[C@H]12)c1nsc(N)n1)C(=O)O [Ex. 26, Disodium 7β-[2-(5-amino-1,2,4-thiadiazol-3-yl)-(Z)-2-(1-carboxylato-1-methylethoxyimino)acetamido]-3-[[1-[(1,5-dihydroxy-4-pyridon-2-yl)methyl]-1H-tetrazol-5-yl]thiomethyl]-3-cephem-4-carboxylate]"
0.2,0.2,"CCO/N=C(\C(=O)N[C@@H]1C(=O)N2C(C(=O)O)=C(CSc3nnnn3Cc3cc(=O)c(O)cn3OC)CS[C@H]12)c1nsc(N)n1 [Ex. 12, Sodium 7β-[2-(5-amino-1,2,4-thiadiazol-3-yl)-(Z)-2-ethoxyiminoacetamido]-3-[[1-[(5-hydroxy-1-methoxy-4-pyridon-2-yl)methyl]-1H-tetrazol-5-yl]thiomethyl]-3-cephem-4-carboxylate]"
0.2,0.1,"CO/N=C(\C(=O)N[C@@H]1C(=O)N2C(C(=O)O)=C(CSc3nnnn3Cc3cc(=O)c(O)cn3OC)CS[C@H]12)c1nsc(N)n1 [Ex. 10, Sodium 7β-[2-(5-amino-1,2,4-thiadiazol-3-yl)-(Z)-2-methoxyiminoacetamido]-3-[[1-[(5-hydroxy-1-methoxy-4-pyridon-2-yl)methyl]-1H-tetrazol-5-yl]thiomethyl]-3-cephem-4-carboxylate]"
0.1,0.05,"CO/N=C(\C(=O)N[C@@H]1C(=O)N2C(C(=O)O)=C(CSc3snc(SCc4cc(=O)c(O)cn4O)c3C#N)CS[C@H]12)c1nsc(N)n1 [Ex. 3, Sodium 7β-[2-(5-amino-1,2,4-thiadiazol-3-yl)-(Z)-2-methoxyiminoacetamido]-3-[[4-cyano-3-[(1,5-dihydroxy-4-pyridon-2-yl)methylthio]isothiazol-5-yl]thiomethyl]-3-cephem-4-carboxylate]"

# — patent US5438053A, “Cephem compounds compositions and method” (Takeda Chemical Industries, Ltd., priority 1992, dated 1995)
